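A five-concentration, 48-hour dose response in 96-well plates underlies each endpoint, interpolated linearly between surrounding concentrations. At the GI50, growth is halved. Definition used: TGI = concentration required for complete inhibition of growth.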
Key:
Assay in all cases: NCI tumour cell line growth inhibition, 48 h
[1] = tested on: IGROV1 ovarian
[2] = tested on: DU-145 prostate
[3] = tested on: HCT-116 colon
[4] = tested on: SF-295 CNS
[5] = tested on: SK-OV-3 ovarian
[6] = tested on: PC-3 prostate
[7] = tested on: NCI/ADR-RES ovarian
[8] = tested on: KM12 colon
[9] = tested on: K-562 leukemia
[10] = tested on: NCI-H460 lung
[11] = tested on: OVCAR-5 ovarian
[12] = tested on: RPMI-8226 leukemia
[13] = tested on: SF-539 CNS
[14] = tested on: UACC-257 melanoma
[15] = tested on: MCF7 breast
[16] = tested on: HT29 colon
[17] = tested on: MOLT-4 leukemia
[18] = tested on: CAKI-1 renal
[19] = tested on: OVCAR-4 ovarian
[20] = tested on: A549 NSCLC
[21] = tested on: EKVX NSCLC
[22] = tested on: SN12C renal
[23] = tested on: 786-0 renal
[24] = tested on: SK-MEL-28 melanoma
[25] = tested on: MDA-MB-435
[26] = tested on: MALME-3M melanoma
[27] = tested on: MDA-MB-231 breast
[28] = tested on: SNB-75 CNS
[29] = tested on: A498 renal

## O=C(O)C(/C=C/c1ccco1)=N\Nc1nc(-c2ccc(Cl)cc2)cs1
[1]
  TGI: 29.6 µM
[2]
  GI50: 15.8 µM
  TGI: > 50 µM
[3]
  GI50: 11.6 µM
  TGI: > 50 µM
[4]
  GI50: 0.842 µM
  TGI: 4.23 µM
[5]
  GI50: 16.1 µM
  TGI: > 50 µM
[6]
  GI50: 17.3 µM
  TGI: > 50 µM
[7]
  GI50: 12.4 µM
  TGI: > 50 µM
[8]
  GI50: 11.2 µM
  TGI: > 50 µM
[9]
  GI50: 13.5 µM
  TGI: > 50 µM
[10]
  GI50: 8.36 µM
  TGI: > 50 µM
[11]
  GI50: 46.4 µM
  TGI: > 50 µM
[12]
  GI50: 15.8 µM
  TGI: > 50 µM
[13]
  GI50: 14.6 µM
  TGI: > 50 µM
[14]
  GI50: 16.8 µM
  TGI: > 50 µM
[15]
  GI50: 10.2 µM
  TGI: 40.6 µM
[16]
  GI50: 20.9 µM
  TGI: > 50 µM
[17]
  GI50: 8.62 µM
  TGI: > 50 µM
[18]
  GI50: 16.6 µM
  TGI: > 50 µM
[19]
  GI50: 9.41 µM
  TGI: > 50 µM
[20]
  GI50: 16 µM
  TGI: > 50 µM
[21]
  GI50: 17.1 µM
  TGI: > 50 µM
[22]
  GI50: 13.2 µM
  TGI: > 50 µM
[23]
  GI50: 14.3 µM
  TGI: > 50 µM
[24]
  GI50: 25.7 µM
  TGI: > 50 µM
[25]
  GI50: 11.3 µM
  TGI: > 50 µM
[26]
  GI50: 35.8 µM
  TGI: > 50 µM
[27]
  GI50: 14.7 µM
  TGI: > 50 µM
[28]
  GI50: 23.1 µM
  TGI: > 50 µM
[29]
  GI50: > 50 µM
  TGI: > 50 µM
